# Literature values as cited in patent publication US20120077687A1, “PROGNOSTIC AND PREDICTIVE GENE SIGNATURE FOR NON-SMALL CELL LUNG CANCER AND ADJUVANT CHEMOTHERAPY” (priority 2010, published 2012).
# Read-outs that look alike come from different tables or passages of the source.
# Columns and labels:
# [1] = system: non-small cell lung cancer (NSCLC) patients; conditions: for HR (survival): LACE meta-analysis
# stage IB NSCLC patients = conditions: 344 stage IB patients, chemotherapy vs observation
Compound,"5-year survival advantage conferred by adjuvant chemotherapy ([1]; ANITA trial, 840 stage IB-IIIA patients) [%]","5-year survival advantage conferred by adjuvant chemotherapy ([1]; IALT, 1,867 stage I-III patients) [%]",absolute survival advantage at 5-year ([1]; LACE meta-analysis of 5 cisplatin-based trials) [%],"HR (survival) ([1]; all patients, 95% CI 0.82-0.96, p=0.004)","HR (survival) ([1]; stage IA patients, 95% CI 0.96-2.09, detriment suggested)","HR (survival) ([1]; stage IB patients, 95% CI 0.78-1.10, no significant benefit)","5-year survival advantage conferred by adjuvant chemotherapy ([1]; NCIC CTG BR.10 Trial, 483 stage IB-II patients) [%]","HR, disease-free survival (stage IB NSCLC patients; p=0.065)","HR, overall survival (stage IB NSCLC patients; p=0.12)"
N.N.[Cl][Pt][Cl] [cisplatin],9,4,5.3,0.89,1.41,0.92,15,,
carboplatin and paclitaxel,,,,,,,,0.80,0.83
